# Assay results published in ChEMBL document CHEMBL1201862, “PubChem BioAssay data set” (2004).
# The source made the active and inactive calls.
# Key:
# [1] = molecular target: T1, NADPH oxidase 1 (Homo sapiens, UniProt Q9Y5S8); format: functional, cell-based;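 also: Cell-based assay with luminescence read-out, IC50 derived from inhibitor dose-response curves; intracellular ROS from endogenous NOX1 in intact HT29 colon cancer cells; potency of inhibitors that lower the ROS luminescence signal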
# T1 sequence (Q9Y5S8 whole entry): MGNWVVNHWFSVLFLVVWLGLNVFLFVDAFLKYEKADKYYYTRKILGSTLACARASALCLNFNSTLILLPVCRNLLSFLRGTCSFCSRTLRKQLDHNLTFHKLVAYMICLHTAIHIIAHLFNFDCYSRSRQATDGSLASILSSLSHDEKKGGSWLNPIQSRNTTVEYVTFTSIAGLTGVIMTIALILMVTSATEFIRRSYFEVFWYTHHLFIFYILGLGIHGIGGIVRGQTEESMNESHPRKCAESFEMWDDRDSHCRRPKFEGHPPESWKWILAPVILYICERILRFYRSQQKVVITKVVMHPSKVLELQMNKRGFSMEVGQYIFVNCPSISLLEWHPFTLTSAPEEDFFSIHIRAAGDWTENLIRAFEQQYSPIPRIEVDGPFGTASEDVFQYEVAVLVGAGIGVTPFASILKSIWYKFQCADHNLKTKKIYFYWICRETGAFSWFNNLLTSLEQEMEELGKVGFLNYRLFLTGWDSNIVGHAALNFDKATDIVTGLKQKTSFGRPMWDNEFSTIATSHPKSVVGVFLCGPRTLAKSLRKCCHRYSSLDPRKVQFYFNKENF
# [2] = molecular target: T2, Estrogen receptor beta (Homo sapiens, UniProt Q92731); experiment: blockers of SRC-3 recruitment to ERβ – biochemical, ELISA, streptavidin-HRP readout, orthogonal assay, confirmation (AID 1060)
# [3] = molecular target: T2, Estrogen receptor beta
# [4] = molecular target: Transthyretin (Homo sapiens, UniProt P02766); experiment: Luminescence-based cell-based high throughput dose response assay to identify activators of Transthyretin (TTR) transcription.; format: functional
# [5] = molecular target: T3, Histone-lysine N-methyltransferase NSD2 (Homo sapiens, UniProt O96028); format: biochemical
# T3 sequence (O96028 whole entry): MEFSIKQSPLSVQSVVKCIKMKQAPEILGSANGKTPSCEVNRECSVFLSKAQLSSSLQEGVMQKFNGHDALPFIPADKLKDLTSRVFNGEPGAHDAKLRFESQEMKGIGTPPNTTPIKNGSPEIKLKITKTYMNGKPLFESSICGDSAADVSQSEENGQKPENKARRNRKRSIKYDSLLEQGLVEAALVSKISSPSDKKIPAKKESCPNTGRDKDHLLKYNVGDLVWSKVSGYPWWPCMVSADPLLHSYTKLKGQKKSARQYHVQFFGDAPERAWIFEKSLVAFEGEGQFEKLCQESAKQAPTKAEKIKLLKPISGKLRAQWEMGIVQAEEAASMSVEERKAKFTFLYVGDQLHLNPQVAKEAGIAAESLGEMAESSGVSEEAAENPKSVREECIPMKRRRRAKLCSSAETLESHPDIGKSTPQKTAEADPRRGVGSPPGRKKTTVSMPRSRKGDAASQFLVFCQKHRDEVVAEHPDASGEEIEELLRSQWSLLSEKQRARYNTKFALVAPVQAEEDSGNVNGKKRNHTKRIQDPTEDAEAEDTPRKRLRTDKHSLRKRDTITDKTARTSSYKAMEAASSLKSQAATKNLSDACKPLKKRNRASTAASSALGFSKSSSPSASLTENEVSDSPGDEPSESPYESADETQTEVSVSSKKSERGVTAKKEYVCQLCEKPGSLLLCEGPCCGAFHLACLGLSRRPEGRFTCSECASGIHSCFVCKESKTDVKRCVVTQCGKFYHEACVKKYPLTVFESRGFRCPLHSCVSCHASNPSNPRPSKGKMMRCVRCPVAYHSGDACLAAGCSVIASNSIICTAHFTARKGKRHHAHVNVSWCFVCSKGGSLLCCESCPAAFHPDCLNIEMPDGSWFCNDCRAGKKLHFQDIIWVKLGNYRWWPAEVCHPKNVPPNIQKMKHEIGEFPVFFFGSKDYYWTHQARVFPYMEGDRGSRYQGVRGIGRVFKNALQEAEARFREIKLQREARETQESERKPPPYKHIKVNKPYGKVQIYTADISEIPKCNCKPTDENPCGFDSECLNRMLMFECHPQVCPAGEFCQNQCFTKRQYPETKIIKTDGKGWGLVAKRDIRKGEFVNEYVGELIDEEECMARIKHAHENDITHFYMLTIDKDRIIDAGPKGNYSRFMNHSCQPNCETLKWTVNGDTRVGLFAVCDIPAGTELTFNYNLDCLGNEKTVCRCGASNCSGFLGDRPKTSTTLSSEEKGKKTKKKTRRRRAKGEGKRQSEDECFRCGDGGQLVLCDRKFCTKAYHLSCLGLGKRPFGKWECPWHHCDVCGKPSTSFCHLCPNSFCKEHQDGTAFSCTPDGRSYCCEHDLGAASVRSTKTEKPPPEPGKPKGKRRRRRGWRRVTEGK
# [6] = molecular target: E3 ubiquitin-protein ligase Mdm2 (Homo sapiens, UniProt Q00987); experiment: MDM2-luc reporter signal enhancers, multi-concentration potency testing, MDM2 ubiquitin-protein ligase inhibitor program, whole-cell format, luminescence detection, 384-well microplate (AID 1394); format: functional;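 also: MDM2 E3 inhibitors raise luminescence so EC50 is for signal enhancement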
# [7] = molecular target: T4, Short transient receptor potential channel 4 (Mus musculus, UniProt Q9QUQ5); experiment: calcium entry via TRPC4 opening agents – cell-based, HEK293 TRPC4/mu-opioid, Fluo-4 calcium, dose response (AID 434937); format: functional
# T4 sequence (Q9QUQ5 whole entry): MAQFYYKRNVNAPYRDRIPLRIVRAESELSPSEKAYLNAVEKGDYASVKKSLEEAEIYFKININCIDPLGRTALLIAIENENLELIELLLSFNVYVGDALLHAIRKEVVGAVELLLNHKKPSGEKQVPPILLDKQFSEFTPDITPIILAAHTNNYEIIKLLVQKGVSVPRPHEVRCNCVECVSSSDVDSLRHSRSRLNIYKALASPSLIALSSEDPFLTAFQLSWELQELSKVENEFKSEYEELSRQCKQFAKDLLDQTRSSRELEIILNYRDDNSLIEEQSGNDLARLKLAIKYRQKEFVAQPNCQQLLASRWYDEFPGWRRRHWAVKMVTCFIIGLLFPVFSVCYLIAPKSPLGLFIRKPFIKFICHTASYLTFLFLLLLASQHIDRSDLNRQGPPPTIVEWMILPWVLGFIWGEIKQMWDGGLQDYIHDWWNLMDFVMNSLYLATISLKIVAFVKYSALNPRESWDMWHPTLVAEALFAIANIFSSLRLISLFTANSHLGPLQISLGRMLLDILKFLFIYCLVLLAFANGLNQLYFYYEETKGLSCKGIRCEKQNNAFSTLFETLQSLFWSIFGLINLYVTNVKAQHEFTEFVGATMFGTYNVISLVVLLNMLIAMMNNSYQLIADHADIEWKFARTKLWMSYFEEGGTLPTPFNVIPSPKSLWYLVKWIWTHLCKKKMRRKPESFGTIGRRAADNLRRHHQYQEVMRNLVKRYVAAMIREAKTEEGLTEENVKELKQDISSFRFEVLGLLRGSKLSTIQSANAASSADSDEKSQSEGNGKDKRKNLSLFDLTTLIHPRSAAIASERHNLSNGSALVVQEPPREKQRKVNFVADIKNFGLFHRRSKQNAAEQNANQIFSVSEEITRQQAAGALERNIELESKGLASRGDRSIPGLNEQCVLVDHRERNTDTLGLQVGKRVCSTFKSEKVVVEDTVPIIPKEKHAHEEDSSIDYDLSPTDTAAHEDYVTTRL
# [8] = molecular target: T5, Ubiquitin-conjugating enzyme E2 N (Homo sapiens, UniProt P61088); format: functional;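 also: Dose-response confirmation in a TR-FRET assay detecting UBC13-driven polyubiquitin chain formation, inhibition measured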
# T5 sequence (P61088 whole entry): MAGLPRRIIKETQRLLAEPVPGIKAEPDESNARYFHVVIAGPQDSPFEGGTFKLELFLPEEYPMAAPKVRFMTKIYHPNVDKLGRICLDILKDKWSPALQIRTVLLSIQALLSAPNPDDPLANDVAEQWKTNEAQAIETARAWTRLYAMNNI
# [9] = molecular target: T6, Protein skinhead-1 (Caenorhabditis elegans, UniProt P34707); format: functional
# T6 sequence (P34707 whole entry): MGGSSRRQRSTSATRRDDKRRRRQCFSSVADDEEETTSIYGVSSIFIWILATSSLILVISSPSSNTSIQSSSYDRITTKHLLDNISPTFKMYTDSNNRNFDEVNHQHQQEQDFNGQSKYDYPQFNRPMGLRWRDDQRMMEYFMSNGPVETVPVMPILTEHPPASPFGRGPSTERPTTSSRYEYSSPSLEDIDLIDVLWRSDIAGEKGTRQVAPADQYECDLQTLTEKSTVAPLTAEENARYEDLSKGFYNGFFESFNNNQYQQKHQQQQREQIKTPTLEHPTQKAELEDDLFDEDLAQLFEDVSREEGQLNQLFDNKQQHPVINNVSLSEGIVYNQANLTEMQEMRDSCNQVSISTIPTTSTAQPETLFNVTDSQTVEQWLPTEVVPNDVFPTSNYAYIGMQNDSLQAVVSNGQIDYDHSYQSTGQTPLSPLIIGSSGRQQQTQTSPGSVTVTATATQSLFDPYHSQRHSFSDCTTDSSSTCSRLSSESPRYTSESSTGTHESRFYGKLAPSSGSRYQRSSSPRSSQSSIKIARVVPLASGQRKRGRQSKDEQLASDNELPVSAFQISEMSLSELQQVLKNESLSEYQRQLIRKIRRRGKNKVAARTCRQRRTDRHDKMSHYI
# [10] = molecular target: Ephrin type-A receptor 4 (Mus musculus, UniProt Q03137); experiment: EphA4 ligand-binding antagonists – biochemical, colorimetric, mouse EphA4, primary screen (AID 689); format: functional
# [11] = NIH3T3 cell viability loss – ATP luminescence, mouse fibroblasts, counter-screen, dose response (AID 2010); format: functional, cell-based;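 also: cells exposed to compound for about 90 hours before reading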
# [12] = cells
# [13] = Trypanosoma cruzi growth suppression in host cells – NIH3T3 host cells, beta-gal luminescence, confirmation (AID 2044); format: functional, cell-based;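 also: intracellular parasites grown in NIH/3T3 mouse fibroblasts as host cells; luminescent beta-galactosidase reporter signal from transgenic T. cruzi replicating inside host cells; inhibitors lower the luminescence signal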
# [14] = Luminescence Cell-Based Dose Confirmation HTS to Identify Activators of 5'UTR Stem-Loop Driven Alpha-Synuclein mRNA Translation in H4 Neuroglioblastoma Cells. [Related pubchem assays: 1829 (Project Summary), 1814 (Primary HTS)]; format: functional
# [15] = Luminescence Cell-Based Dose Response HTS to Identify Activators of Luciferase Translation or Activity in H4 […] Cells. [Related pubchem assays: 1829 (Project Summary), 1814 (Primary HTS)]; format: functional
# [16] = test system: H4; experiment: Luminescence Cell-Based Dose Response HTS to Identify Activators of 5'UTR Stem-Loop Driven Prion Protein mRNA Translation in H4 Neuroglioblastoma Cells. [Related pubchem assays: 1829 (Project Summary), 1814 (Primary HTS)]; format: functional; conditions: Homo sapiens
# [17] = Luminescence Cell-Based Dose Response to Identify Activators of Luciferase Translation or Activity in H4-C Neuroglioblastoma Cells. [Related pubchem assays: 1829 (Project Summary), 1814 (Primary HTS)]; format: functional
# [18] = Luminescence Cell-Based Dose Response to Identify Activators of 5'UTR Stem-Loop Driven Prion Protein mRNA Translation in H4-C Neuroglioblastoma Cells. [Related pubchem assays: 1829 (Project Summary), 1814 (Primary HTS)]; format: functional
# [19] = Luminescence Cell-Based Dose Confirmation to Identify Activators of 5'UTR Stem-Loop Driven Alpha-Synuclein mRNA Translation in H4 Neuroglioblastoma Cells. [Related pubchem assays: 1829 (Project Summary), 1814 (Primary HTS)]; format: functional
# T2 sequence (Q92731 whole entry): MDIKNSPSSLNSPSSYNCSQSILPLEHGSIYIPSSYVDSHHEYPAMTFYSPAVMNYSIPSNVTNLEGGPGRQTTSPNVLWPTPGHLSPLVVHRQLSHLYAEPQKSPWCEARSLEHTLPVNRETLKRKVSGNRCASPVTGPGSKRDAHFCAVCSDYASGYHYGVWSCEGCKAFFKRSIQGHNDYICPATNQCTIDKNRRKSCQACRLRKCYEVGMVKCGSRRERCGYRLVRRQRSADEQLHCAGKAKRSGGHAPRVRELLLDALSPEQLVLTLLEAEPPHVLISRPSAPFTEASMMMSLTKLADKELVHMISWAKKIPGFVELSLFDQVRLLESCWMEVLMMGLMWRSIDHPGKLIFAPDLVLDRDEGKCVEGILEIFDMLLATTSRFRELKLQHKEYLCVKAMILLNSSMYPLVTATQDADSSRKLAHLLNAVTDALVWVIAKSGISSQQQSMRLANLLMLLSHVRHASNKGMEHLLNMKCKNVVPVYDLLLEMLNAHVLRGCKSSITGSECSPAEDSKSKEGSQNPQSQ
# Chain of Ephrin type-A receptor 4 (Q03137 whole entry): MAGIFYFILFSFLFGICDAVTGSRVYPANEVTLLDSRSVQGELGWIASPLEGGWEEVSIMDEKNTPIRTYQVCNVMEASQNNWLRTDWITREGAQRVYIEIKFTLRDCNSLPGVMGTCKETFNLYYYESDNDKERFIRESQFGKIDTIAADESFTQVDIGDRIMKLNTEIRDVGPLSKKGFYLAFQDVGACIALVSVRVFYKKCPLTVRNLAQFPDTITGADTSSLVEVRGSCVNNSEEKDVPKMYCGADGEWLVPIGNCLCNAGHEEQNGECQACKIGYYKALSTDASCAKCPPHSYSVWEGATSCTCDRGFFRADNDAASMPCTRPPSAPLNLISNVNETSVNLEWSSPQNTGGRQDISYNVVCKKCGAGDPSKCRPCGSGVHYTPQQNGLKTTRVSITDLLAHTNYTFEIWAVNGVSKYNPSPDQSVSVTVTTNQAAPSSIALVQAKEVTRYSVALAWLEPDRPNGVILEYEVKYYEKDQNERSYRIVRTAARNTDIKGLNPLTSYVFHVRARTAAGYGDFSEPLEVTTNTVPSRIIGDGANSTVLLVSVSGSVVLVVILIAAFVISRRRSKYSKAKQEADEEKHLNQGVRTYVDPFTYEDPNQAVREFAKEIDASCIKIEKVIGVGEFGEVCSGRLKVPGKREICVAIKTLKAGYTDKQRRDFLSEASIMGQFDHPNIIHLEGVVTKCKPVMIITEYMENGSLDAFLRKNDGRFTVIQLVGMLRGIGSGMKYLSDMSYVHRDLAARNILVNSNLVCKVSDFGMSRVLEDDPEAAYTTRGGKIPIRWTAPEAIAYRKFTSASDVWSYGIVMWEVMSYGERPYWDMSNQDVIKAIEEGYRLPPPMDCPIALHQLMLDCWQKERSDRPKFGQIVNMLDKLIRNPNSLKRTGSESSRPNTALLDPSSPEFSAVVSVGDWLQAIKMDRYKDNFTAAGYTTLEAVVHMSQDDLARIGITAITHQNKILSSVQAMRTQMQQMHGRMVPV
# Chain of E3 ubiquitin-protein ligase Mdm2 (Q00987 whole entry): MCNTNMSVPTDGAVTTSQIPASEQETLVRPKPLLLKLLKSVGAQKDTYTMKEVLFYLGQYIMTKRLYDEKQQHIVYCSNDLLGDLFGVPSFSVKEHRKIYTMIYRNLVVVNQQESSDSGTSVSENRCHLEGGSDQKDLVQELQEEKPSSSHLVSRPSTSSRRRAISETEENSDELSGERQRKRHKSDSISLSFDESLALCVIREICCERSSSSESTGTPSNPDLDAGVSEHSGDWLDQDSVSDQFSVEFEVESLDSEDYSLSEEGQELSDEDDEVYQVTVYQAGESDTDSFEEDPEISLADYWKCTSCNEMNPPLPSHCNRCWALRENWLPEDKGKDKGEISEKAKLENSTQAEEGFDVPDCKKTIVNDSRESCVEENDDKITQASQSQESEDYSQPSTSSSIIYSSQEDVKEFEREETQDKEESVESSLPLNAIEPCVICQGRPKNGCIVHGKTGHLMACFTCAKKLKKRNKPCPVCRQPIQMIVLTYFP
smiles,measurement,setting,value
O=[N+]([O-])c1ccc2c(c1)Sc1ccc(C(F)(F)F)cc1N2,IC50,[1],1.41 µM (active)
COc1ccc(C2CC(=O)Nc3ccccc3S2(=O)=O)cc1OC (centres undefined),IC50,[2],< 0.023 µM (not active)
same,IC50,[3],16.1 µM (active)
CCCC(=O)NC1=C(N2CC2)C(=O)C(NC(=O)CCC)=C(N2CC2)C1=O,EC50,[4],> 167 µM (inactive)
same,AC50,[5],6.65 µM (active)
CC(C)n1cnc2c(N(C)c3ccccc3)nc(N(CCN(C)C)Cc3ccccc3)nc21,EC50,[6],19.3 µM (not active)
same,EC50,[7],10.6 µM (active)
same,IC50,[8],> 20 µM (inactive)
Nc1c(C(=O)Nc2ccc(F)cc2)sc2nc(-c3ccco3)ccc12,IC50,[9],> 100 µM (inactive)
same,IC50,[2],> 50 µM (not active)
same,IC50,[3],> 50 µM (not active)
O=[N+]([O-])c1ccc(N2N=C(c3ccco3)CC2c2ccccc2)cc1 (centres undefined),IC50,[10],> 100 µM (not active)
Cc1c(NC(=S)N/N=C/c2cccc(O)c2)c(=O)n(-c2ccccc2)n1C,IC50,[10],39.5 µM (active)
O=C(CCC1CCCN(Cc2cccc3c2OCO3)C1)NCc1ccc(F)c(F)c1 (centres undefined),EC50,[11],> 60 µM (not active)
same,EC50,[12],216 nM (active)
same,EC50,[13],< 100 nM (active)
COc1ccc(/C=N/NC(=O)c2ccc[nH]2)cc1,EC50,[14],155 nM (active)
same,EC50,[15],114 nM (active)
same,EC50,[16],< 100 nM (active)
same,EC50,[17],324 nM (active)
same,EC50,[18],460 nM (active)
same,EC50,[19],343 nM (active)
Cc1nn(C(C)C)c(C)c1CN1CCCC(CCC(=O)NCc2ccccc2F)C1 (centres undefined),EC50,[11],> 60 µM (not active)
same,EC50,[12],< 4 nM (active)
same,EC50,[13],< 100 nM (active)
Cc1cc(=O)oc2cc(NC(=O)c3ccccc3Cl)ccc12,EC50,[15],< 100 nM (active)
same,EC50,[17],364 nM (active)
same,EC50,[18],345 nM (active)
same,EC50,[19],208 nM (active)
